# According to patent publication US10782292B2, “Antibiotic susceptibility testing via plasmonic imaging and tracking” (priority 2015, dated 2020):
# “Also recorded” adds a separate entry of the source.
# What was measured:
# E. coli O157:H7 [1] = assay: Plasmonic imaging and tracking (PIT) of Z-movement (nanomotion) of single antibody-tethered bacterial cells; format: cell-based
# E. coli O157:H7 [2] = assay: Culturing in LB medium after antibiotic treatment on the sensor chip (validation of cell death); format: cell-based
# Excerpt: […] the addition of polymyxin B, Z-movement decreases from ±5 nm to ±0.5 nm, which is close to the Brownian motion of a dead bacterium. We further validated the metabolic state by culturing and elongating the tethered cell in standard Luria Broth (LB) media before adding the antibiotic.
# Referring now to FIG. […] PMB is a bactericidal antibiotic which kills Gram-negative bacteria by permeabilizing the outer membrane.^60 At high concentrations, […], PMB also depolarizes the cytoplasmic membrane, causing ion-permeable pores in the cell envelope.^30 Within a few seconds after adding the antibiotic, there was a marked decrease in the Z-movement of the bacterial cell from about ±3 to about ±1 nm. We further observed that after a few minutes, the bacterial cell Z-movement reached a baseline value of ±0.5 nm. […] The decrease in bacterial cell length has been previously correlated to cell lysis and cell death after the addition of polypeptide antibiotics.^69 We validated the correlation between the decreases in nanomotion and change of the bacterial metabolic state by replacing the antibiotic-containing PBS with LB medium (lacking PMB) on the sensor chip. […] We subsequently collected a small sample volume from the above sensor chip and subjected it to culturing overnight in LB medium.
# (§1) Referring now specifically to FIG. 3D, there shown are control experiment data comparing Z-movement in PBS 102 and on injections of 2% glucose 104, 1×PBS 106, and antibiotic 108. […] After subsequently eliminating glucose in the 1×PBS medium, the amplitude of the nanomotion, measured over 1 s windows for 20 s videos, decreased back to the level prior to the injection of glucose (as shown in FIG. 3E). The positive correlation between glucose injection and Z-movement strongly supports that bacterial cell nanomotion originates from metabolic activity rather than Brownian motion.
# [3] = system: UPEC E. coli strain CFT073; assay: PIT of Z-movement (nanomotion) of UPEC cells immobilized with APTES linker; format: cell-based; details: PMB 1 mg/mL, APTES surface, 1×PBS, FIG. 12
# Procedure: We immobilized the UPEC strain on the sensor using the (3-aminopropyl)-triethoxysilane (APTES) linker, rather than using the antibody immobilization for the E. coli O157:H7 study described above. We studied the nanomotion changes as antibiotic PMB acted on bacterial cells at a bactericidal concentration of 1 mg/mL. […] These experiments indicate that the methods may be used for different bacterial strains and different antibiotics. To fully establish the present method for rapid AST in clinical settings, additional and more comprehensive tests will still be needed in the future.
# An aliquot of frozen E. coli O157:H7 or E. coli CFT073 strain was thawed and used to inoculate 10 mL of LB medium. […]
# All plasmonic imaging sequences were collected at 106 fps at a pixel resolution of 640×480. […] Images were recorded in either transmitted or plasmonic imaging mode for various time durations. […]
# More specifically, the plasmonic image intensity was calculated by obtaining averaged intensity within a fixed area around the bacterial cell using the bare gold chip regions as reference. The Z-distance of the bacterial cell above the sensor surface was then calculated from the plasmonic image intensity (Iz) with a calibrated curve, given by Iz=I0 exp(−Δz/L), where I0 is a constant, Δz is the z displacement of a bacterial cell, and L is the decay constant. […]
# UPEC strain = assay: Overnight culturing in LB medium after antibiotic treatment (validation of cell death), UPEC; format: cell-based, E. coli CFT073; details: after PMB 1 mg/mL
# E. coli O157:H7 [4] = assay: Transmitted microscope image of bacterial cell length after adding antibiotic; format: cell-based
# Procedure: Referring now to FIG. 3C the effect of antibiotic polymycin B at a concentration of 500 μg/mL on Z-movement of a bacterial cell is shown. […] PMB is a bactericidal antibiotic which kills Gram-negative bacteria by permeabilizing the outer membrane.^60 At high concentrations, such as […] used in this study, PMB also depolarizes the cytoplasmic membrane, causing ion-permeable pores in the cell envelope.^30 Within a few seconds after adding the antibiotic, there was a marked decrease in the Z-movement of the bacterial cell from about ±3 to about ±1 nm. We further observed that after a few minutes, the bacterial cell Z-movement reached a baseline value of ±0.5 nm. […]
# as §1, with “The positive correlation between glucose injection and Z-movement strongly supports that bacterial cell nanomotion originates from metabolic activity rather than Brownian motion.” left out
# All plasmonic imaging sequences were collected at 106 fps at a pixel resolution of 640×480. […] Images were recorded in either transmitted or plasmonic imaging mode for various time durations.
# Gram-negative bacteria = details: literature reference 30; cited from earlier work
Compound,"Change in nanomotion (Z-movement) after streptomycin (E. coli O157:H7 [1]; streptomycin 1 mg/mL, PBS supplemented with LB (0.4×LB media), FIG. 13)",Overnight culturing after streptomycin (E. coli O157:H7 [2]; after streptomycin 1 mg/ml),"Change in nanomotion (Z-movement) at sub-bactericidal concentration (E. coli O157:H7 [1]; 0.5 μg/ml (b80 prints 0.5 g/mL), after 20 min, 1×PBS, FIG. 10, listed as PMB)","Change in nanomotion (Z-movement) at 5× bactericidal concentration (E. coli O157:H7 [1]; 100 μg/m, 1×PBS, FIG. 10, listed as PMB)","Change in nanomotion after antibiotic in glucose control experiment (E. coli O157:H7 [1]; PMB 75 µg/mL (bactericidal concentration), FIG. 3D)","Change in Z-motion of a bacterial cell after adding antibiotic (E. coli O157:H7 [1]; added at t=120 s, FIG. 3A)","Nanomotion after replacing antibiotic-containing PBS with LB medium (E. coli O157:H7 [1]; after PMB 500 µg/mL, LB lacking PMB)",Change in nanomotion (Z-movement) of UPEC cells ([3]; listed as PMB),Change in nanomotion (Z-movement) of UPEC cells ([3]; listed as polymycin B),Bacterial growth on overnight culturing in LB medium (E. coli O157:H7 [2]; after PMB 75 µg/mL),Cellular growth on subsequent incubation in LB media (E. coli O157:H7 [2]; after polymyxin B 75 μg/ml),Growth of bacterial cells after overnight incubation in LB medium (E. coli O157:H7 [2]; sample from sensor chip after PMB 500 µg/mL),Overnight culturing in LB medium of UPEC sample (UPEC strain; listed as PMB),Overnight culturing in LB medium of UPEC sample (UPEC strain; listed as polymycin B),"Cell length in transmitted microscope image after antibiotic (E. coli O157:H7 [4]; PMB 75 µg/mL, FIG. 11)",Bacterial cell length after adding antibiotic (E. coli O157:H7 [4]; high antibiotic concentration (500 g/mL study)),Concentration at which bactericidal activity has been observed (Gram-negative bacteria) [g/mL]
[H]/N=C(/N)N[C@H]1[C@H](O)[C@@H](O)[C@H](O[C@@H]2O[C@@H](C)[C@](O)(C=O)[C@H]2O[C@@H]2O[C@@H](CO)[C@H](O)[C@@H](O)[C@@H]2NC)[C@@H](N/C(N)=N\[H])[C@@H]1O [streptomycin],decrease in nano-motion; also recorded: decrease in the nanomotion,confirmed the death of the bacteria,–,–,–,–,–,–,–,–,–,–,–,–,–,–,–
Polymyxin B,–,–,did not observe changes in the nanomotion; also recorded: does not change the Z-movement,significant decrease in nanomotion; also recorded: large decrease in Z-movement,decrease in bacterial nanomotion,large drop in Z-motion,no further change in the bacterial nanomotion,decrease in bacterial nanomotion,large decrease in the nano-motion,no bacterial growth,did not lead to cellular growth,no growth of bacterial cells,no bacterial growth,confirmed the death of the bacteria,visible decrease in cell length,decreases in bacterial cell length,20
